This note sets out measurements from US6800630B2, “Pyrimidine derivatives having antitumor effect” (Shionogi & Co., Ltd., priority 2000, dated 2004).

SMILES strings stand for the structures. Values after ≈ are worked out from the molar mass of the structure shown.

Assay type in all cases: cell-based
Assay [1] relates to DT-C cells (pGV-P transfected v-ki-ras-transformed NIH373 cells). The assay can be described thus: Luciferase activity of DT-C control cells (IC50-C), index of non-specific transcription-inhibitory effect or cytotoxicity. The settings on record: tested concentration nearest to 50% inhibition in DT-C cells. From the text: (§1) Test Example 1 Inhibitory effect against cellular signaling derived from Ras oncogene products
(§2) Based on the reporter plasmid (pGV-P (Toyo Ink, Japan)), in which luciferase gene was ligated to SV40-derived minimal promoter, we constructed a plasmid designated pRRE3-luc by inserting 3 copies of chemically synthesized oligonucleotides (Sequence: CAGGATATGACTCT, derived from mouse NVL-3 (M. A. Reddy et al.(1992)Mol. Endocrinol., 6, 1051)) into upstream of the promoter. v-ki-ras-transformed NIH373 cells (DT cells, provided by Dr. Makoto Noda (Kyoto Univ., School of medicine)) were transfected with this plasmid by liposome-mediated transfection and transfected cell lines stably incorporated and maintained each plasmid were obtained. We named pGV-P and pRRE3-transfected cell line as DT-C and DT-R, respectively and used in the assay described below.
(§3) i) All the cell lines were cultured in Dulbecco's Modified Essential Medium (DMEM: 10% Fetal Calf Serum(FCS: Hyclone, USA)) including […] kanamycin (Meiji Seika, Japan) in humidified incubator under condition of 5% CO2 at 37° C.
(§4) ii) DT-C and DT-R cells were seeded at 2500 cells/well into flat-bottom 96 well multiplate (Sumitomo bakelite) and incubated for 24 hours.
(§5) iii) Test compounds were prepared as 1 mg/ml DMSO solution.
(§6) iv) The solution of test compounds were added to the culture. Tested compounds are used at the concentration from […] to 0.51 ng/ml with 3-fold dilution.
(§7) v) After 24 hours, the culture supernatant was completely aspirated and 20 μl of cell-lysing solution (PGC-50 (Toyo Ink, Japan)) was added before cells were dried up. In order to lyse the cells completely, multiwell plates were left at room temperature for 10 to 30 min. The plates were wrapped up and stored at −20° C. till the day of measurement.
(§8) i) Melt the samples by putting 96 well multiplate at 37° C. and add 90 μl/well 25 mM Tris (pH 7.5).
(§9) ii) Transfer 50 μl of the sample (110 μl) to the 96 well microplate (Microlite 1 (Dynatech)) for measurement.
(§10) iii) Measure the samples by the luminometer, LUMINOUS CT9000D (Dia-Yatron, Japan). We used Pickagene luminescence kit PGL2000 or LT2.0 (Toyo Ink, Japan) as enzyme substrates for luminescence measurement (50 μl/well).
(§11) i) The luciferase activity of DT-C cells and DT-R cells were plotted in the graph where the relative activity and the compound concentration were expressed as Y-axis and X-axis, respectively. We judged by the degree of dissociation between the activities of DT-C cells and DT-R cells as an index.
b) Among the points of concentration tested, the concentration which is the nearest to 50% inhibition concentration at DT-C cells (IC50-C), was shown as an index of non-specific transcription-inhibitory effect or of cytotoxicity. In case of positive compounds, 50% inhibition concentration in DT-C cells which was higher than the active concentration was expressed as IC50-C.

For assay [2], the system named is signal derived from Ras oncogene products (DT-R cells, pRRE3-luc transfected v-ki-ras-transformed NIH373 cells). As to the kind of experiment: Inhibitory effect against cellular signaling derived from Ras oncogene products: RRE-luciferase reporter, Minimal Active Concentration (MAC) at which DT-C and DT-R activities dissociate. The settings on record: minimal concentration at which luciferase activities of DT-C and DT-R cells dissociated.
Excerpt: as §1, §2, §3, §4, §5, §6, §7, §8, §9, §10, §11
ii) Concretely, efficacy of the compound was expressed by two values described below.
a) Among the points of concentration tested, the minimal concentration (Minimal Active Concentration: MAC), at which the activities of DT-C cells and DT-R cells dissociated, was shown as an index of efficacy of the compound.
For orientation: Reporter assays use an easily measured gene product as a stand-in for the process of interest.

The test system of assay [3] is human squamous lung cancer Ma44. The assay can be described thus: In vitro cell growth inhibition test, MTT assay. To be noted: MTT assay 4 days after compound addition. From the text: (§12) Test Example 2 In vitro cell growth inhibition test Cells and MTT assay
(§13) Human squamous lung cancer […], human squamous lung cancer Ma44, human lung adenocarcinoma A549, human colon cancer HT29 and human pancreas cancer PANC-1 were used.
(Formazan colour is commonly taken as a measure of viable cells.)

In assay [4] the test system is human lung adenocarcinoma A549. The assay can be described thus: In vitro cell growth inhibition test, MTT assay. The settings on record: MTT assay 4 days after compound addition.
Excerpt: as §12, §13

Assay [5] concerns human pancreas cancer PANC-1. The assay can be described thus: In vitro cell growth inhibition test, MTT assay. To be noted: MTT assay 4 days after compound addition.
Excerpt: as §12, §13

In a further assay the test system is human colon cancer HT29. As to the kind of experiment: In vitro cell growth inhibition test, MTT assay. To be noted: MTT assay 4 days after compound addition.
Excerpt: as §12, §13

Another assay relates to H460. As to the kind of experiment: In vitro cell growth inhibition test, MTT assay. To be noted: MTT assay 4 days after compound addition.
Excerpt: [The source words this procedure for another cell line and reports this cell line under the same test.] as §12, §13

The test system of assay [6] is human squamous lung cancer RERF-RC-AI. As to the kind of experiment: In vitro cell growth inhibition test, MTT assay. To be noted: MTT assay 4 days after compound addition.
Excerpt: as §12, §13

On to `CCNC(=Nc1nc(C)ncc1C(C)Sc1nnc(-c2ccc([N+](=O)[O-])cc2)o1)SC` (racemic) [Compound A-22], for which the “IC50 (IC50-C)” value in assay [1] was more than 10 µg/mL. Further, in assay [2], the “MAC (Minimal Active Concentration)” value came out at 1.11 µg/mL. Further, the “IC50 Ma44” value in assay [3] was determined as 0.042 µg/mL (≈ 0.0914 µM).

In the case of `CCCNC(=Nc1nc(C)ncc1CSc1nnc(-c2ccc(N)cc2)o1)SC` [Compound A-12], the “IC50 (IC50-C)” value in assay [1] is more than 10 µg/mL. For the same compound, the “MAC (Minimal Active Concentration)” value in assay [2] was 0.0137 µg/mL. Further, in assay [3], the “IC50 Ma44” value was found to be 0.0095 µg/mL (≈ 0.0221 µM). In assay [4], the “IC50 A549” value worked out at 0.008 µg/mL (≈ 0.0186 µM). The “IC50 PANC-1” value in assay [5] is 0.0091 µg/mL (≈ 0.0212 µM). Besides, in the assay with human colon cancer HT29, the “IC50 HT-29” value was 0.0063 µg/mL (≈ 0.0147 µM). In the assay with H460, the “IC50 H460” value was 0.0115 µg/mL (≈ 0.0268 µM). Also, the “IC50 RERF-LC-AI” value in assay [6] was found to be 0.0057 µg/mL (≈ 0.0133 µM).

Regarding `CCNC(=Nc1nc(C)ncc1CSc1nnc(-c2ccc([N+](=O)[O-])cc2)o1)OC` [Compound A-32], in assay [1], the “IC50 (IC50-C)” value was more than 10 µg/mL. Also, the “MAC (Minimal Active Concentration)” value in assay [2] amounted to 0.123 µg/mL. In addition, in assay [3], the “IC50 Ma44” value came out at 0.042 µg/mL (≈ 0.0978 µM). The “IC50 A549” value in assay [4] was found to be 0.064 µg/mL (≈ 0.149 µM). The “IC50 PANC-1” value in assay [5] was determined as 0.034 µg/mL (≈ 0.0792 µM). Further, in the assay with human colon cancer HT29, the “IC50 HT-29” value amounted to 0.031 µg/mL (≈ 0.0722 µM). Moreover, the “IC50 RERF-LC-AI” value in assay [6] came out at 0.031 µg/mL (≈ 0.0722 µM).

Turning to `CNC(=Nc1nc(C)ncc1CSc1nnc(-c2ccc(N)cc2)o1)SC` [Compound A-10], in assay [1], the “IC50 (IC50-C)” value was more than 10 µg/mL. Besides, the “MAC (Minimal Active Concentration)” value in assay [2] is 1.11 µg/mL. Besides, the “IC50 Ma44” value in assay [3] was 0.08 µg/mL (≈ 0.199 µM).

Take `CCNC(=Nc1nc(C)ncc1CSc1nnc(-c2ccc([N+](=O)[O-])cc2)o1)SC` [Compound A-3]: the “IC50 (IC50-C)” value in assay [1] was more than 10 µg/mL. Also, in assay [2], the “MAC (Minimal Active Concentration)” value was 0.37 µg/mL. Further, the “IC50 Ma44” value in assay [3] is 0.056 µg/mL (≈ 0.126 µM). In addition, the “IC50 A549” value in assay [4] is 0.063 µg/mL (≈ 0.141 µM). The “IC50 PANC-1” value in assay [5] was found to be 0.051 µg/mL (≈ 0.114 µM). Moreover, in the assay with human colon cancer HT29, the “IC50 HT-29” value was found to be 0.052 µg/mL (≈ 0.117 µM). Further, the “IC50 RERF-LC-AI” value in assay [6] stood at 0.046 µg/mL (≈ 0.103 µM).

Turning to `CCNC(=Nc1nc(C)ncc1C(C)Sc1nnc(-c2ccc([N+](=O)[O-])cc2)o1)NCC` (racemic) [Compound A-23], the “IC50 (IC50-C)” value in assay [1] was more than 10 µg/mL. The “MAC (Minimal Active Concentration)” value in assay [2] amounted to 3.33 µg/mL.

As for `CNC(=Nc1nc(C)ncc1CSc1nnc(-c2ccc([N+](=O)[O-])cc2)o1)OC(C)C` [Compound A-34], the “IC50 (IC50-C)” value in assay [1] is more than 10 µg/mL. The “MAC (Minimal Active Concentration)” value in assay [2] came out at 0.0137 µg/mL. The “IC50 Ma44” value in assay [3] came to 0.0091 µg/mL (≈ 0.0205 µM). Moreover, the “IC50 A549” value in assay [4] is 0.021 µg/mL (≈ 0.0474 µM). For the same compound, the “IC50 PANC-1” value in assay [5] worked out at 0.0075 µg/mL (≈ 0.0169 µM). The “IC50 HT-29” value with human colon cancer HT29 stood at 0.0046 µg/mL (≈ 0.0104 µM). Further, the “IC50 RERF-LC-AI” value in assay [6] was determined as 0.013 µg/mL (≈ 0.0293 µM).

In the case of `CCSC(=Nc1nc(C)ncc1CSc1nnc(-c2ccc(N)cc2)o1)NC` [Compound A-13], the “MAC (Minimal Active Concentration)” value in assay [2] came out at 0.0137 µg/mL. Also, in assay [3], the “IC50 Ma44” value came to 0.03 µg/mL (≈ 0.0722 µM). Besides, in assay [4], the “IC50 A549” value stood at 0.015 µg/mL (≈ 0.0361 µM). Moreover, in assay [5], the “IC50 PANC-1” value worked out at 0.0077 µg/mL (≈ 0.0185 µM). Moreover, the “IC50 HT-29” value with human colon cancer HT29 was 0.0089 µg/mL (≈ 0.0214 µM).

As to `CCNC(=Nc1nc(C)ncc1CSc1nnc(-c2ccc(N)cc2)o1)SC` [Compound A-11], the “IC50 (IC50-C)” value in assay [1] was more than 10 µg/mL. Further, the “MAC (Minimal Active Concentration)” value in assay [2] is 0.0412 µg/mL. Further, the “IC50 Ma44” value in assay [3] was 0.077 µg/mL (≈ 0.185 µM). The “IC50 A549” value in assay [4] was determined as 0.014 µg/mL (≈ 0.0337 µM). Moreover, the “IC50 PANC-1” value in assay [5] turned out to be 0.0064 µg/mL (≈ 0.0154 µM). Further, in the assay on human colon cancer HT29, the “IC50 HT-29” value came out at 0.0067 µg/mL (≈ 0.0161 µM).
